Test results taken from patent US11225480B2, “Malic enzyme inhibitors” (SUN PHARMA ADVANCED RESEARCH COMPANY LTD, priority 2019, dated 2022).

Columns and labels:
Format in all cases: biochemical
human ME3 enzyme = molecular target: T1, human ME3 enzyme (Homo sapiens, UniProt Q16798); experiment: ME3 inhibition assay (diaphorase/resazurin coupled fluorescence); conditions: 10 μM compound concentration; read-out: Malic Enzyme 3 % inhibition (10 μM)
T1 sequence (Q16798 1-604): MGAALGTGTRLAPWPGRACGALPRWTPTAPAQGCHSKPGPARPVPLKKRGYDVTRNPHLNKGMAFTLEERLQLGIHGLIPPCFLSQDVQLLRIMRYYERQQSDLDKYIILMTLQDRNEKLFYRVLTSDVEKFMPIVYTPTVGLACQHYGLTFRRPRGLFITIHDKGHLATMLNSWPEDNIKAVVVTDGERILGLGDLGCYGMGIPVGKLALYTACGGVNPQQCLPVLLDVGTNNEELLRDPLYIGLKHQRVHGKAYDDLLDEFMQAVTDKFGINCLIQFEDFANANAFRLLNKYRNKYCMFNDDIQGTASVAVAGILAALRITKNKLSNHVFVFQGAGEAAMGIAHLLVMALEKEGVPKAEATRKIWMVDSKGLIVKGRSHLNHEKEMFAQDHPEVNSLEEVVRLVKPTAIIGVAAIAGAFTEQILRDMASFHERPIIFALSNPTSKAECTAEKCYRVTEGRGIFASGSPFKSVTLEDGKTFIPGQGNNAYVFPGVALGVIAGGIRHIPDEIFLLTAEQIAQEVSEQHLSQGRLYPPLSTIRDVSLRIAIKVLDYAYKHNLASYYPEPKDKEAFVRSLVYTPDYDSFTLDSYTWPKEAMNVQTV
Summary of the method: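 Coupled read-out: NADPH made by human ME3 (20 nM stock) drives diaphorase conversion of resazurin (50 μM) to resorufin; buffer 50 mM Tris-HCl pH 7.5, 10 mM MnCl2, 3 mM L-malate.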

human ME2 enzyme = human ME2 enzyme (Homo sapiens, UniProt P23368); experiment: ME2 inhibition assay (diaphorase/resazurin coupled fluorescence); conditions: 10 μM compound concentration; read-out: Malic Enzyme 2 % inhibition (10 μM)
Summary of the method: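 Human ME2 (10 μL of 60 nM) was preincubated 5 min at room temperature with compound (10 μM) in 50 mM Tris-HCl pH 7.5, 10 mM MnCl2, 7 mM L-malate, 50 μM resazurin and 0.025 mg/ml diaphorase. The reaction was started with 10 μL of 2 mM β-NAD+ and run 2 hours at room temperature. Resorufin fluorescence (ex 540/em 600 nm) was normalized to enzyme-only (100%) and no-enzyme (0%) controls as % activity.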

human ME1 enzyme = molecular target: T2, human ME1 enzyme (Homo sapiens, UniProt P48163); experiment: ME1 inhibition assay (diaphorase/resazurin coupled fluorescence); conditions: 10 μM compound concentration; read-out: Malic Enzyme 1 % inhibition (10 μM)
T2 sequence (P48163 1-572): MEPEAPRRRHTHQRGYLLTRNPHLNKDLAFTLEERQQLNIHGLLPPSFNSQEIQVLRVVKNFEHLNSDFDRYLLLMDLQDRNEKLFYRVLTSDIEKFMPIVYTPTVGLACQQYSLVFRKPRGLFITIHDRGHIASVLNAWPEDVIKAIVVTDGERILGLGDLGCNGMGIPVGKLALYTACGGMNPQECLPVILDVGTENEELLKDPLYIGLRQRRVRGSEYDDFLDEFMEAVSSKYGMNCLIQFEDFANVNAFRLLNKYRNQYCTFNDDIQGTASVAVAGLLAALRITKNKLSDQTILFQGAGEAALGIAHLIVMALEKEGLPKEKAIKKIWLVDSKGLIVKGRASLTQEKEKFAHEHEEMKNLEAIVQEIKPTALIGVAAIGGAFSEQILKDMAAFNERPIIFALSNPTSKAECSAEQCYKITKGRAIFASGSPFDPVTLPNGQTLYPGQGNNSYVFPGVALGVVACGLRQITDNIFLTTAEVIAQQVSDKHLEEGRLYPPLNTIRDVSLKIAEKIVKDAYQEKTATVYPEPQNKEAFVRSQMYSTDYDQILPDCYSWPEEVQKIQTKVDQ
Summary of the method: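 Compounds at 10 μM preincubated 15 min in 50 mM Tris-HCl pH 7.5, 10 mM MnCl2, 2 mM L-malate, 10 μM resazurin, 0.01 mg/ml diaphorase, then human ME1 added for 5 min; reaction started with NADP+ and run 2 h at room temperature. Resorufin fluorescence (ex 540/em 600 nm) normalized to enzyme-only (100%) and no-enzyme (0%) controls.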

human ME2 enzyme, sequence (P23368 19-584): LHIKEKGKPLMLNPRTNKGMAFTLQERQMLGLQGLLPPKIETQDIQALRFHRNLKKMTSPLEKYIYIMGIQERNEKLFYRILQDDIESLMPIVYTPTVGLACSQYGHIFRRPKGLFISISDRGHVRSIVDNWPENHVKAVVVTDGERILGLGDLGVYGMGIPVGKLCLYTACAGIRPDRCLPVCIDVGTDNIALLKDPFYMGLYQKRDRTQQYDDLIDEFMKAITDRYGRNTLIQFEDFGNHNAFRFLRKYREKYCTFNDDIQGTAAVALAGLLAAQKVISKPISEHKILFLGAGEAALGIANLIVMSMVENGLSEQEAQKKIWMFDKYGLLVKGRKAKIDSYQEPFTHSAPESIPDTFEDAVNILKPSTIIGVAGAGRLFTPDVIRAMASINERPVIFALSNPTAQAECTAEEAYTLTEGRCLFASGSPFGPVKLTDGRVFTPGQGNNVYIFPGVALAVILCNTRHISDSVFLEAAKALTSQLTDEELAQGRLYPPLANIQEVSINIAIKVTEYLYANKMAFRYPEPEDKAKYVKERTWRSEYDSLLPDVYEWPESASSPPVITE

Row | Compound | inhibition at 10 µM (human ME3 enzyme) [%] | inhibition at 10 µM (human ME2 enzyme) [%] | inhibition at 10 µM (human ME1 enzyme) [%]
1 | O=C(CSc1ccccc1Br)N1CCN(c2ccc(O)cc2)CC1 [I.151, 2-(2-bromo-phenylsulfanyl)-1-[4-(4-hydroxy-phenyl)-piperazin-1-yl]-ethanone] | > 90 | > 90 | > 90
2 | O=C(CCc1ccc(Cl)cc1)N1CCN(c2ccc(O)cn2)CC1 [I.82, 3-(4-Chloro-phenyl)-1-[4-(5-hydroxy-pyridin-2-yl)-piperazin-1-yl]-propan-1-one] | > 90 | > 90 | > 90
3 | O=C(CSc1ccccc1Br)N1CCN(c2ccc(O)cn2)CC1 [I.143, 2-(2-Bromo-phenylsulfanyl)-1-[4-(5-hydroxy-pyridin-2-yl)-piperazin-1-yl]-ethanone] | > 90 | > 90 | > 90
4 | Cc1ccccc1CCC(=O)N1CCN(c2ccc(O)cn2)CC1 [I.107, 1-[4-(5-Hydroxy-pyridin-2-yl)-piperazin-1-yl]-3-o-tolyl-propan-1-one] | > 90 | > 90 | > 90
5 | Cc1cccc(Cl)c1C(=O)N1CCN(c2ccc(O)cn2)CC1 [I.80, (2-Chloro-6-methylphenyl)-[4-(5-hydroxy-pyridin-2-yl)-piperazin-1-yl]-methanone] | > 90 | > 90 | > 90
6 | O=C(c1c[nH]c2ncccc12)N1CCN(c2ccc(O)cn2)CC1 [I.63, [4-(5-Hydroxy-pyridin-2-yl)-piperazin-1-yl]-(1H-pyrrolo[2,3-b]pyridin-3-yl)-methanone] | > 90 | 70 to 89 | 70 to 89
7 | O=C(CNCC12CC3CC(CC(C3)C1)C2)N1CCN(c2ccc(O)cn2)CC1 [I.57, 2-(1-adamantylmethylamino)-1-[4-(5-hydroxy-2-pyridyl)piperazin-1-yl]ethanone] | > 90 | 70 to 89 | 70 to 89
8 | O=C(CCc1ccc(F)cc1)N1CCN(c2ccc(O)cn2)CC1 [I.126, 3-(4-Fluoro-phenyl)-1-[4-(5-hydroxy-pyridin-2-yl)-piperazin-1-yl]-propan-1-one] | > 90 | > 90 | > 90
9 | O=C(CCc1cccc(F)c1)N1CCN(c2ccc(O)cn2)CC1 [I.92, 3-(3-Fluoro-phenyl)-1-[4-(5-hydroxy-pyridin-2-yl)-piperazin-1-yl]-propan-1-one] | > 90 | > 90 | > 90
10 | CC(CC(=O)N1CCN(c2ccc(O)cn2)CC1)c1ccccc1 (stereo not drawn) [I.115, 1-[4-(5-Hydroxy-pyridin-2-yl)-piperazin-1-yl]-3-phenyl-butan-1-one dihydro-chloride] | > 90 | > 90 | > 90
11 | O=C(CCc1ccncc1)N1CCN(c2ccc(O)cn2)CC1 [I.66, 1-[4-(5-Hydroxy-pyridin-2-yl)-piperazin-1-yl]-3-pyridin-4-yl-propan-1-one] | > 90 | 70 to 89 | 70 to 89
12 | O=C(c1c2ccccc2nc2ccccc12)N1CCN(c2ccc(O)cn2)CC1 [I.44, Acridin-9-yl-[4-(5-hydroxy-pyridin-2-yl)-piperazin-1-yl]-methanone] | > 90 | 50 to 69 | > 90
13 | O=C(Cc1c[nH]c2ccccc12)N1CCN(c2ccc(O)cn2)CC1 [I.62, 1-[4-(5-Hydroxy-pyridin-2-yl)-piperazin-1-yl]-2-(1H-indol-3-yl)-ethanone] | > 90 | 70 to 89 | 70 to 89
14 | O=C(CSc1ccc(F)cc1)N1CCN(c2ccc(O)cn2)CC1 [I.163, 2-(4-Fluoro-phenyl-sulfanyl)-1-[4-(5-hydroxy-pyridin-2-yl)-piperazin-1-yl]-ethanone] | > 90 | > 90 | > 90
15 | O=C(Cc1cc(F)c(F)c(F)c1)N1CCN(c2ccc(O)cc2)CC1 [I.171, 1-[4-(4-Hydroxy-phenyl)-piperazin-1-yl]-2-(3,4,5-trifluoro-phenyl)-ethanone] | > 90 | > 90 | > 90
16 | O=C(Cc1c[nH]c2cc(Cl)c(Cl)cc12)N1CCN(c2ccc(O)cn2)CC1 [I.174, 2-(5,6-Dichloro-1H-indol-3-yl)-1-[4-(5-hydroxy-pyridin-2-yl)-piperazin-1-yl]-ethanone] | > 90 | > 90 | > 90
17 | CC(C)(Sc1ccccc1Br)C(=O)N1CCN(c2ccc(O)cn2)CC1 [I.162, 2-(2-Bromo-phenyl-sulfanyl)-1-[4-(5-hydroxy-pyridin-2-yl)-piperazin-1-yl]-2-methyl-propan-1-one] | > 90 | > 90 | > 90
18 | O=C(Cc1c[nH]c2cc(F)ccc12)N1CCN(c2ccc(O)cn2)CC1 [I.158, 2-(6-Fluoro-1H-indol-3-yl)-1-[4-(5-hydroxy-pyridin-2-yl)-piperazin-1-yl]-ethanone] | > 90 | > 90 | > 90
19 | O=C(CCC1CCCCC1)N1CCN(c2ccc(O)cn2)CC1 [I.121, 3-Cyclohexyl-1-[4-(5-hydroxy-2-pyridyl)-piperazin-1-yl]propan-1-one] | > 90 | > 90 | > 90
20 | Cc1cccc(CCC(=O)N2CCN(c3ccc(O)cn3)CC2)c1C [I.146, 3-(2,3-Dimethyl-phenyl)-1-[4-(5-hydroxy-pyridin-2-yl)-piperazin-1-yl]-propan-1-one] | > 90 | > 90 | > 90
21 | Cn1cc(CC(=O)N2CCN(c3ccc(O)cn3)CC2)c2cc(F)ccc21 [I.165, 2-(5-Fluoro-1-methyl-indol-3-yl)-1-[4-(5-hydroxy-pyridin-2-yl)-piperazin-1-yl]-ethanone] | > 90 | > 90 | > 90
22 | Cc1cc(N2CCN(C(=O)Cc3ccccc3)CC2)ccc1O [I.52, 1-[4-(4-Hydroxy-3-methyl-phenyl)-piperazin-1-yl]-2-phenyl-ethanone] | > 90 | > 90 | > 90
23 | O=C(C(c1ccc(Cl)cc1)c1ccc(Cl)cc1)N1CCN(c2ccc(O)cn2)CC1 [I.58, 2,2-bis(4-Chloro-phenyl)-1-[4-(5-hydroxy-2-pyridyl)-piperazin-1-yl]ethanone] | > 90 | 50 to 69 | 70 to 89
24 | O=C(CCc1ccccc1C(F)(F)F)N1CCN(c2ccc(O)cn2)CC1 [I.128, 1-[4-(5-Hydroxy-pyridin-2-yl)-piperazin-1-yl]-3-(2-trifluoro-methylphenyl)-propan-1-one] | > 90 | > 90 | > 90
25 | O=C(Cc1ccc(F)cc1F)N1CCN(c2ccc(O)cc2)CC1 [I.149, 2-(2,4-difluoro-phenyl)-1-[4-(4-hydroxy-phenyl)-piperazin-1-yl]-ethanone] | > 90 | > 90 | > 90
